Test results published in patent US10674723B2, “1,8-bis(Schiff base)-p-menthane derivatives as well as preparation method and applications thereof” (INSTITUTE OF CHEMICAL INDUSTRY OF FOREST PRODUCTS, CAF, priority 2016, dated 2020).

Tested on: annual ryegrass
Experiment: Pre-emergence herbicidal activity by the Petri dish seed germination method
Format: in vivo
Settings: 25° C., 5 days
Procedure: Step 2: accurately weigh 1 mmol of the 1,8-bis(Schiff base)-p-menthane derivative and dissolve it in 0.25 mL DMF, and then add a drop of Tween 80 into it; after the product is fully dissolved, the resulting solution is transferred to a 100 mL volumetric flask and is diluted with distilled water to the mark to obtain a solution having a concentration of 10 mmol/L as the mother liquor. Using the two-fold dilution method, a series of diluted sample solutions with different concentrations are prepared with the mother liquor (the concentrations of DMF and Tween 80 in the diluted solutions should be consistent with those in the mother liquor).
The annual ryegrass seeds are soaked with distilled water for 15 h. Place a piece of filter paper on the bottom of a Petri dish (φ9 cm), add 10 mL of the above sample solution having the corresponding concentration into it, respectively, and add the same amount of the mixture of water, DMF and Tween 80 into such a Petri dish as a blank control. Place 10 grains of seeds into each dish. The dishes are then placed in an incubator and cultured at 25° C. for 5 days. The experimental data are analyzed with DPS software, and the inhibition rate of the 1,8-bis(Schiff base)-p-menthane derivative on the root or stem growth of ryegrass seeds is calculated as follows:
[formula] Where: y is the inhibition rate on the root or stem growth, x2 is the root length or stem length of the control sample, and x1 is the root length or stem length of the sample.
1 mmol of the 1,8-bis(2-hydroxyphenylimine)-p-menthane was accurately weighed and dissolved in 0.25 mL DMF; a drop of Tween 80 was then added into it; after the product was fully dissolved, the resulting solution was transferred to a 100 mL volumetric flask and was diluted with distilled water to the mark to obtain a solution having a concentration of 10 mmol/L as the mother liquor. Using the two-fold dilution method, a series of diluted sample solutions with different concentrations (5 mmol/L, 2.5 mmol/L, 1.25 mmol/L, 0.625 mmol/L and 0.3125 mmol/L; the concentrations of DMF and Tween 80 in the diluted solutions should be consistent with those in the mother liquor) were prepared with the mother liquor.
The annual ryegrass seeds were soaked with distilled water for 15 h. Placed a piece of filter paper on the bottom of a Petri dish (φ 9 cm), added 10 mL of the above sample solution having the corresponding concentration into it, respectively, and added the same amount of the mixture of water, DMF and Tween 80 into such a Petri dish as a blank control. 10 grains of seeds were placed into each of the dishes. The dishes were then placed in an incubator and cultured at 25° C. for 5 days.

Compound | inhibition rate on the root growth of ryegrass seeds (0.3125 mmol/L solution) [%] | inhibition rate on the stem growth of ryegrass seeds (0.3125 mmol/L solution) [%] | inhibition rate on the root growth of ryegrass seeds (0.625 mmol/L solution) [%] | inhibition rate on the stem growth of ryegrass seeds (0.625 mmol/L solution) [%] | inhibition rate on the root growth of ryegrass seeds (1.25 mmol/L solution) [%] | inhibition rate on the stem growth of ryegrass seeds (1.25 mmol/L solution) [%] | inhibition rate on the root growth of ryegrass seeds (2.5 mmol/L solution) [%] | inhibition rate on the stem growth of ryegrass seeds (2.5 mmol/L solution) [%] | inhibition rate on the root growth of ryegrass seeds (5 mmol/L solution) [%] | inhibition rate on the stem growth of ryegrass seeds (5 mmol/L solution) [%] | inhibition rate on the root growth of ryegrass seeds (10 mmol/L solution) [%] | inhibition rate on the stem growth of ryegrass seeds (10 mmol/L solution) [%]
1,8-bis(2-hydroxyphenylimine)-p-menthane | 14.3 | 6.9 | 41.4 | 38.0 | 62.2 | 61.7 | 83.3 | 79.5 | 100.0 | 100.0 | 100.0 | 100.0
1,8-bis(2-trifluoromethylphenylimine)-p-menthane | 79.2 | 56.3 | 86.2 | 56.3 | 99.7 | 88.2 | 100.0 | 100.0 | 100.0 | 100.0 | 100.0 | 100.0
1,8-bis(4-bromophenylimine)-p-menthane | 71.0 | 64.8 | 88.0 | 79.5 | 100.0 | 100.0 | 100.0 | 100.0 | 100.0 | 100.0 | 100.0 | 100.0
1,8-bis(4-chlorophenylimine)-p-menthane | 94.1 | 75.2 | 98.0 | 90.3 | 99.3 | 91.4 | 100.0 | 98.2 | 100.0 | 100.0 | 100.0 | 100.0
1,8-bis(4-fluorophenylimine)-p-menthane | 14.0 | 4.5 | 35.0 | 21.6 | 58.0 | 49.9 | 78.0 | 53.8 | 85.5 | 82.5 | 94.9 | 94.9
1,8-bis(4-methoxyphenylimine)-p-menthane | 12.5 | 30.6 | 15.5 | 32.2 | 54.3 | 48.2 | 88.3 | 73.9 | 100.0 | 100.0 | 100.0 | 100.0
1,8-bis(4-methylphenylimine)-p-menthane | 20.3 | 11.1 | 26.3 | 25.9 | 34.2 | 26.8 | 67.0 | 46.2 | 92.8 | 90.4 | 100.0 | 100.0
1,8-bis(p-dimethylaminophenylimine)-p-menthane | 100.0 | 96.8 | 100.0 | 100.0 | 100.0 | 100.0 | 100.0 | 100.0 | 100.0 | 100.0 | 100.0 | 100.0
1,8-bis(p-methylthiophenylimine)-p-menthane | 37.7 | 20.8 | 46.4 | 28.7 | 35.4 | 27.1 | 54.8 | 28.0 | 50.3 | 21.9 | 67.8 | 36.7
1,8-bis(p-trifluoromethylphenylimine)-p-menthane | 35.4 | 1.1 | 45.5 | 2.4 | 65.8 | 26.0 | 87.5 | 53.7 | 81.7 | 34.8 | 93.8 | 87.9
CC1(N=Cc2c(Cl)cccc2Cl)CCC(C(C)(C)N=Cc2c(Cl)cccc2Cl)CC1 (stereo not drawn) [1,8-bis(2,6-dichlorophenylimine)-p-menthane] | 100.0 | 100.0 | 100.0 | 100.0 | 100.0 | 100.0 | 100.0 | 100.0 | 100.0 | 100.0 | 100.0 | 100.0
